Data from publication PMC3898461 (Biochemistry, 2013).

Biological target: MurQ-EC (MurNAc 6P hydrolase from Escherichia coli) (Escherichia coli, UniProt P76535)
Assay: coupled spectrophotometric assay of D-lactate release
Format: biochemical

Sequence of MurQ-EC (MurNAc 6P hydrolase from Escherichia coli) (P76535 whole entry): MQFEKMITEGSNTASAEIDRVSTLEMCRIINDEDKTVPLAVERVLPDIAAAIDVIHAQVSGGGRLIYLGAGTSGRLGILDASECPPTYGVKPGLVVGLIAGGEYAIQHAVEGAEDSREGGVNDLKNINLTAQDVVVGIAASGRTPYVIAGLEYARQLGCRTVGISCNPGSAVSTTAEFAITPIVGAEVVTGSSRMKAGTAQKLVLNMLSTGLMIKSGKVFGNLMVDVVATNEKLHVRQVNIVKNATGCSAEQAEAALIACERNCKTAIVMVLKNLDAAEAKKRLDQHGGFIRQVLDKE

Compound	Ki [µM]
CC(=O)N[C@@H](CO)[C@@H](O)[C@H](O)[C@H](O)COP(=O)(O)O [compound 1]	1100 ± 300
CC(=O)N[C@@H](CO)[C@@H](O[C@H](C)C(=O)O)[C@H](O)[C@H](O)COP(=O)(O)O [compound 2]	230 ± 20
